Measurements from patent US11046889B2, “Polymerizable compound and optically anisotropic body” (DIC Corporation, priority 2015, dated 2021).

Test: Solubility check of 20 wt % solutions in organic solvents
Format: physicochemical
Set-up: key: A: the compound dissolves at room temperature; B: the compound does not dissolve at room temperature but dissolves when heated to 60° C.; the compound does not dissolve even when heated to 60° C
Details: room temperature or heated to 60° C.
Protocol: 20 wt % solutions of each of the compounds to be evaluated in chloroform, trichloroethane, cyclopentanone, methyl ethyl ketone (MEK), methyl isobutyl ketone (MIBK), and toluene were prepared to check the solubilities of the compound to be evaluated.

Q: With `C=CC(=O)OCCOCCOC(=O)C1CCC(C(=O)OC2CCC(C(=O)Oc3ccc(OC(=O)C4CCC(OC(=O)C5CCC(C(=O)OCCOCCOC(=O)C=C)CC5)CC4)c4c3SC(=C3C(=O)N(c5ccccc5)N=C3C(=O)OCC)S4)CC2)CC1` (stereo not drawn) [Compound I-14] as the molecule, how does the “Results of Solubility Chloroform” value (20 wt % solution in chloroform) read?
A: Its value is “A”.

Q: What about the “Results of Solubility Cyclopentanone” value (20 wt % solution in cyclopentanone) of the same molecule?
A: Its value is “B”.

Q: And the “Results of Solubility MEK” value (20 wt % solution in methyl ethyl ketone (MEK))?
A: The value was “B”.

Q: What about the “Results of Solubility MIBK” value (20 wt % solution in methyl isobutyl ketone (MIBK)) of the same molecule?
A: The value was “C”.

Q: What about the “Results of Solubility Toluene” value (20 wt % solution in toluene) of the same molecule?
A: Its value is “B”.

Q: What about the “Results of Solubility Trichloroethane” value (20 wt % solution in trichloroethane) of the same molecule?
A: Its value is “A”.
